Measurements: patent US5859033A, “Anticonvulsant pyridinyl benzamide derivatives” (Bristol-Myers Squibb Company, priority 1997, dated 1999)

How the values were obtained:
[1] = system: tonic seizure (maximum electroshock) in female C57BI/6 mice; test: Maximum Electroshock (MES) procedure; format: in vivo, mouse (female C57BI/6); details: Mus musculus, ip, 0.5 h, i.p. 30 min before MES, abolition of hindlimb tonic extension, read-out: MES Results: median effective dose (ED50)
Experimental: (§1) The compounds of Formula I are anticonvulsant agents. Their anticonvulsant properties were determined by pharmacologic testing, utilizing two standard animal models of epilepsy: the pentylenetetrazole (PTZ)-induced seizure procedure and the maximal electroshock test (MES). General descriptions of such testing can be found in J. F. Reinhard and J. F. Reinhard, Jr., "Experimental Evaluation of Anticonvulsants," in Anticonvulsants, J. A. Vida, Ed., Academic Press, New York, N.Y., 1977.
The Maximum Electroshock (MES) Procedure
In the MES procedure a tonic seizure was produced in female C57BI/6 mice (17-26 g) by the delivery of a 50 milliamps current through corneal electrodes for 0.2 sec. Before testing, animals were allowed food and water ad libitum. Compounds were injected i.p. (vol=0.1 mL/20 g) 30 min. before the MES. Reference compounds (phenytoin, carbamazepine, phenobarbital, and valproic acid) were tested at the time of peak activity and at the dose range reported in the literature. Seven mice were used per group. In this test anticonvulsive activity was indicated by the abolition of the hindlimb tonic extension. The median effective dose (ED50) was obtained for each compound.

[2] = system: pentylenetetrazole (PTZ)-induced seizure in female C57BI/6 mice; test: Pentylenetetrazole (PTZ)-induced seizure procedure; format: in vivo, mouse (female C57BI/6); details: 50 mg/kg i.p., 30 min before 75 mg/kg i.p. PTZ; for PTZ Anticonvulsive Results: Surv (survival at one hour postPTZ): one hour post PTZ
Experimental: as §1
The Pentylenetetrazole (PZT)-Induced Seizure Procedure
In the PTZ procedure female C57BI/6 mice (17-26 g) were injected i.p. (vol=0.1 mL/20 g) with test compound or vehicle 30 min. before i.p. administration of 75 mg/kg pentylenetetrazol. Multiple doses of reference compounds (ethosuximide, trimethadione, and pentobarbital) were tested at the time of peak activity and at the dose range reported in the literature. Ten mice were used per group. After injection, mice were placed in individual observation cages and monitored for one hour. During the first 30 minutes following PTZ injection, seizure activity was recorded by measuring: the latency to the onset of pre-convulsive activity, the latency to the onset of the first clonic seizure longer than five seconds, the latency to the onset of the first intense-generalized clonic/tonic seizure, and the length of survival. During the second 30 min. period, only time of death was recorded. Those compounds that produced a significant delay in the onset of seizure activity or delayed (or abolished) mortality when compared to that produced by vehicle were classified as anticonvulsants. Significant difference between animals treated with vehicle or test compound were determined using the Student's t-test.

Structure (SMILES) | ED50 [1] [mg/kg] | PTZ Anticonvulsive Results: First (latency to first seizure) [2] | PTZ Anticonvulsive Results: IGS (onset of intense, generalized seizures) [2] | PTZ Anticonvulsive Results: Pre (latency to first twitch) [2] | PTZ Anticonvulsive Results: Surv Time (duration of survival) [2] | PTZ Anticonvulsive Results: Surv (survival at one hour postPTZ) [2]
COc1cc(N)c(Cl)cc1C(=O)NCc1cccnc1 [Example 1, 4-Amino-5-chloro-2-methoxy-N-(3-pyridinylmethyl)benzamide] | < 75 | ++++ (++++ = > 400% of controls) | +++ (+++ = > 300% of controls) | ++ (++ = > 200% of controls) | ++++ (++++ = > 400% of controls) | ++++ (++++ = > 400% of controls)
COc1cc(N)c(Cl)cc1C(=O)NCc1ccccn1 [Example 2, 4-Amino-5-chloro-2-methoxy-N-(2-pyridinylmethyl)benzamide] | – | ++++ (++++ = > 400% of controls) | – | ++ (++ = > 200% of controls) | +++ (+++ = > 300% of controls) | ++++ (++++ = > 400% of controls)
COc1cc(N)c(Cl)cc1C(=O)NCc1ccncc1 [Example 3, 4-Amino-5-chloro-2-methoxy-N-(4-pyridinylmethyl)benzamide] | < 10 | ++++ (++++ = > 400% of controls) | +++ (+++ = > 300% of controls) | ++ (++ = > 200% of controls) | ++++ (++++ = > 400% of controls) | ++++ (++++ = > 400% of controls)
